{"source": "patent US12152248B2", "about": "“Membrane-penetrating peptides to enhanced transfection and compositions and methods for using same” (LIFE TECHNOLOGIES CORPORATION, priority 2013, dated 2024)", "assay_type_in_all_cases": "cell-based", "key": {"HeLa cells [1]": {"tested_on": "HeLa cells", "assay": "GFP transfection with lipid alone, peptide alone or both (FIG. 8)", "conditions": "96-well, 48 hrs, Peptide 1 in the presence of LIPOFECTAMINE® 3000, 0.05-0.5 μl", "from_the_text": "FIG. 8 are bar graphs depicting relative transfection efficiency (upper graph, GFP+ as % of Single Cells Only) or relative expression level per cell (lower graph; Single cells Only Mean FL-1) of HeLa cells transfected with a GFP expression vector using the indicated doses (in μl) of LIPOFECTAMINE® 3000 alone (LF3K), LIPOFECTAMINE® 2000 (LF2K), a peptide according to an embodiment (Peptide 1) or LIPOFECTAMINE® 3000 in combination with a peptide according to an embodiment (LF3K+ Peptide 1);\nHeLa cells were seeded onto 96-well plates and transfected for 48 hrs with […] of pcDNAEF1a/emGFP using either 0.05 μl, 0.1 μl, 0.2 μl, 0.3 μl, 0.4 μl, or 0.5 μl of LIPOFECTAMINE® 3000 Reagent alone (LF3K), LIPOFECTAMINE® 2000 (LF2K), Peptide 1 alone (Peptide 1), or LIPOFECTAMINE® 3000 in combination with Peptide 1 as described in Example 1 (LF3K+Peptide 1). Transfection efficiency and protein expression as measured by Fluorescence intensity (FL1-H) were determined. Results are depicted in FIG. 8."}, "[2]": {"tested_on": "HEK293, HeLa, COS-7, LNCaP, A549 and HepG2", "assay": "Comparison of transfection reagents, GFP fluorescence images (FIG. 2)", "conditions": "panel of six cell lines; pcDNAEF1a/emGFP; 48 hrs; Peptide 1 used with LIPOFECTAMINE® 3000", "procedure": "Transfection complexes for transfecting DNA into cells in culture were prepared according to manufacturer protocol. LIPOFECTAMINE® 2000 and LIPIFECTAMINE® LTX were purchased from Life Technologies Corp. (Carlsbad, CA), FUGENE® HD was purchased from Promega Corp. (Fitchburg, WI), and X-TREMEGENE™ HP was purchased from Roche Diagnostics (Basel, Switzerland).\nTo prepare transfection complexes containing the non-naturally occurring peptides described above, Peptide 1 having the following sequence […] (SEQ ID NO. 89) was synthesized and provided as a dry powder. The dry powder was reconstituted in sterile ultrapure water to a final concentration of 4.35 mg/ml and allowed to fully dissolve. This stock peptide solution was set aside for use in the next step.\nTo prepare the lipid aggregate-DNA-peptide complexes, LIPOFECTAMINE® 3000 reagent (Life Technologies Corp., Carlsbad, CA) was obtained. […]\nFollowing the incubation, the lipid-peptide-DNA complexes were added to cells that were seeded the previous day with fresh growth medium; for 96-well plates, 10 μl of the lipid-peptide-DNA was added to the cells, for 24-well plates, 50 μl of the lipid-peptide-DNA mixture was added to the cells, for 6-well plates, 250 μl of the lipid-peptide-DNA was added to the cells. The cells were incubated in the presence of the lipid-peptide-DNA for approximately 24-48 hrs, and analyzed. […]"}, "HeLa cells [3]": {"tested_on": "HeLa cells", "assay": "Effect of transfection reagent dosage on transfection efficiency and GFP expression (FIG. 3)", "conditions": "96-well, 0.1-0.4 μl reagent, Peptide 1 with LIPOFECTAMINE® 3000 vs LIPOFECTAMINE® 2000 and LTX", "from_the_text": "(§1) FIG. 3A is a graph comparing the relative transfection efficiency for an expression vector encoding GFP transfected into cultured HeLa cells using increasing dosages of three different commercially available lipid aggregate formulations, LIPOFECTAMINE® 2000 (open circles), LIPOFECTAMINE® LTX (open squares), and LIPOFECTAMINE® 3000 in combination with a peptide according to an embodiment (open triangles);\nas §1, with “3B” for “3A”, “intensity of GFP expression in HeLa cells transfected with” for “relative transfection efficiency for”, “GFP” for “GFP transfected into cultured HeLa cells”, “dosage” for “dosages”\nHeLa cells were plated in 96-well plates and transfected with pcDNAEF1a/emGFP using 0.1 μl, 0.2 μl, 0.3 μl or 0.4 μl of LIPOFECTAMINE® 2000, LIPOFECTAMINE® LTX, or LIPOFECTAMINE® 3000 reagent in combination with Peptide 1 as described in Example 1. Transfection efficiency and relative protein expression as measured by […] was determine for each condition. […]"}}, "data": [{"sequence": "SRRARRSPRESGKKRKRKRGGGSGGGSGGGSRRRRRRRRRRR [Peptide 1, 89; MPP DPV10/6 fused to Linker 1 and cationic CP1]", "values": [{"measurement": "transfection efficiency and protein expression (FIG. 8)", "setting": "HeLa cells [1]", "value": "significantly enhances transfection efficiency and protein expression"}, {"measurement": "transfection efficiency (GFP expression, FIG. 2)", "setting": "[2]", "value": "improved transfection efficiency substantially"}, {"measurement": "relative expression of GFP (FIG. 3B)", "setting": "HeLa cells [3]", "value": "improves relative expression of GFP in the cells over the entire range of transfection reagent dosages tested"}, {"measurement": "relative transfection efficiency (FIG. 3A)", "setting": "HeLa cells [3]", "value": "improves transfection efficiency of the cells over the entire range of transfection reagent dosages tested"}]}]}
